Results reported in EP4389210A1, “HETEROARYL COMPOUNDS FOR THE CONTROL OF INVERTEBRATE PESTS” (BASF SE, priority 2022, dated 2024).

Tests used:
Format in all cases: in vivo
[1] = test system: Anthonomus grandis; test: Boll weevil (Anthonomus grandis) control, 96-well microtiter plate insect diet test with eggs; conditions: 120 h, egg and larval mortality visually assessed after 5 days at about 25 ± 1°C, read-out: mortality in comparison with untreated controls
Method: For evaluating control of boll weevil (Anthonomus grandis) the test unit consisted of 96-well-microtiter plates containing an insect diet and 5-10 A. grandis eggs.
The compounds were formulated using a solution containing 75% v/v water and 25% v/v DMSO. Different concentrations of formulated compounds were sprayed onto the insect diet at 5µl, using a custom-built micro atomizer, at two replications.
After application, microtiter plates were incubated at about 25 ± 1°C and about 75 ± 5 % relative humidity for 5 days. Egg and larval mortality was then visually assessed.

[2] = test system: Spodoptera eridania; test: Southern armyworm (Spodoptera eridania), 2nd instar larvae, foliar spray on lima bean plants; conditions: 96 h, 2nd instar larvae on sprayed lima bean plants, assessed 4 days after treatment, read-out: mortality in comparison with untreated controls
Method: The active compounds were formulated by a Tecan liquid handler in 100% cyclohexanone as a 10,000 ppm solution supplied in tubes. The 10,000 ppm solution was serially diluted in 100% cyclohexanone to make interim solutions. These served as stock solutions for which final dilutions were made by the Tecan in 50% acetone:50% water (v/v) into 10 or 20ml glass vials. A nonionic surfactant (Kinetic®) was included in the solution at a volume of 0.01% (v/v). The vials were then inserted into an automated electrostatic sprayer equipped with an atomizing nozzle for application to plants/insects. Lima bean plants (variety Sieva) were grown 2 plants to a pot and selected for treatment at the 1st true leaf stage. Test solutions were sprayed onto the foliage by an auto-mated electrostatic plant sprayer equipped with an atomizing spray nozzle. The plants were dried in the sprayer fume hood and then removed from the sprayer. Each pot was placed into perforated plastic bags with a zip closure. Ten to 11 armyworm larvae were placed into the bag and the bags zipped closed. Test plants were maintained in a growth room at about 25°C and about 20-40% relative humidity for 4 days, avoiding direct exposure to fluorescent light (14:10 light:dark photoperiod) to prevent trapping of heat inside the bags. Mortality and reduced feeding were assessed 4 days after treatment, compared to untreated control plants.

[3] = test system: Aedes aegypti; test: whole plant or invertebrate; conditions: 48 h, larval mortality visually assessed after 2 days at 28±1°C, read-out: mortality in comparison with untreated controls
Method: For evaluating control of yellow fever mosquito (Aedes aegypti) the test unit consisted of 96-well-microtiter plates containing 200µl of tap water per well and 5-15 freshly hatched A. aegypti larvae.
The active compounds were formulated using a solution containing 75% (v/v) water and 25% (v/v) DMSO. Different concentrations of formulated compounds or mixtures were sprayed onto the insect diet at 2.5µl, using a custom-built micro atomizer, at two replications.
After application, microtiter plates were incubated at 28±1°C, 80±5 % RH for 2 days. Larval mortality was then visually assessed.

[4] = test system: Heliothis virescens; test: Tobacco budworm (Heliothis virescens) control, 96-well microtiter plate insect diet test with eggs; conditions: 120 h, egg and larval mortality visually assessed after 5 days at about 28 ± 1°C, read-out: mortality in comparison with untreated controls
Method: For evaluating control of tobacco budworm (Heliothis virescens) the test unit consisted of 96-well-microtiter plates containing an insect diet and 15-25 H. virescens eggs.
The compounds were formulated using a solution containing 75% v/v water and 25% v/v DMSO. Different concentrations of formulated compounds were sprayed onto the insect diet at 10 µl, using a custom-built micro atomizer, at two replications.
After application, microtiter plates were incubated at about 28 ± 1°C and about 80 ± 5 % relative humidity for 5 days. Egg and larval mortality was then visually assessed.

[5] = test system: Dichromothrips corbetti; test: Orchid thrips (Dichromothrips corbetti) floral-immersion test; conditions: adult thrips on dipped orchid petals, recorded 72 hours after treatment, read-out: mortality in comparison with untreated controls
Method: Dichromothrips corbetti adults used for bioassay were obtained from a colony maintained continuously under laboratory conditions. For testing purposes, the test compound is diluted in a 1:1 mixture of acetone:water (vol:vol), plus Kinetic HV at a rate of 0.01% v/v.
Thrips potency of each compound was evaluated by using a floral-immersion technique. All petals of individual, intact orchid flowers were dipped into treatment solution and allowed to dry in Petri dishes. Treated petals were placed into individual re-sealable plastic along with about 20 adult thrips. All test arenas were held under continuous light and a temperature of about 28°C for duration of the assay. After 3 days, the numbers of live thrips were counted on each petal. The percent mortality was recorded 72 hours after treatment.

CC(NC(=O)c1cc(Cl)cc(C(F)(F)F)c1)c1ncccc1-n1cc(C#N)cn1 (stereo not drawn) [Compound I-2]
≥ 75%: mortality at 2500 ppm [1] | mortality at 300 ppm [2] | mortality at 2500 ppm [3]

CC(NC(=O)c1cc(Cl)cc(C(F)(F)F)c1)c1ncccc1-n1nccn1 (stereo not drawn) [Compound I-1]
≥ 75%: mortality at 2500 ppm [4] | mortality at 2500 ppm [1] | mortality at 300 ppm [2] | mortality at 300 ppm [5] | mortality at 2500 ppm [3]

CC(NC(=O)c1cc(Cl)cc(C(F)(F)F)c1)c1nc(Cl)ccc1-n1nccn1 (stereo not drawn) [Compound I-3, 3-chloro-N-[1-[6-chloro-3-(triazol-2-yl)-2-pyridyl]ethyl]-5-(trifluoromethyl)benzamide]
≥ 75%: mortality at 2500 ppm [4] | mortality at 2500 ppm [1] | mortality at 300 ppm [2] | mortality at 2500 ppm [3]
